Results published in publication PMC8761912, “Cryptosporidium parvum Pyruvate Kinase Inhibitors With in vivo Anti-cryptosporidial Efficacy” (Frontiers in Microbiology, 2022).
“Also recorded” adds a separate entry of the source. Read-outs that look alike come from different tables or passages of the source.

Assays:
[1] = target: recombinant CpPyK (rCpPyK) protein (Cryptosporidium parvum, UniProt Q5CSM7); test: rCpPyK enzymatic activity inhibition assay (ATP detection, Cell Titer-Glo luminescence); assay type: biochemical
Experimental: The in vitro enzymatic activity of the rCpPyK protein was determined by quantitating the amount of ATP produced by the transfer of a phosphate group from phosphoenolpyruvate to adenosine diphosphate (ADP) in the presence of varying concentrations of the recombinant protein (Figure 1A). A typical assay contained 0.5 mM phosphoenolpyruvate, 0.6 mM ADP, 50 mM Tris buffer pH 7.5, 60 mM MgSO4, 100 mM KCl, and varying concentrations of rCpPyK incubated for 3 h at room temperature. The ATP generated was detected in a reaction volume of 50 μl in white opaque-walled 96 well plates by the luciferase-based Cell Titer-Glo 2.0 reagent (Promega) following the manufacturer’s instructions. The enzyme kinetics of rCpPyK were determined by using varying phosphoenolpyruvate (0–8 mM) and ADP (0–2 mM) concentrations in an enzymatic reaction catalyzed by a fixed concentration of the recombinant protein (6 ng/μl). In all assays, reaction mixtures without rCpPyK were included as negative controls. Three independent assays were performed for each experiment, and samples were run in triplicate. The luminescence generated was recorded using a multi-mode microplate reader (Spectra Max iD3; Molecular Devices, United States). GraphPad PRISM® v8 software was used to fit the Michaelis–Menten model directly to the substrate-velocity data to determine the enzymatic kinetic parameters for rCpPyK.
The Diversity Set VI chemical library (Supplementary Table 1) was obtained from the National Cancer Institute (NCI)/Developmental Therapeutics Program (DTP) Open Repository collection of chemical compounds.^1 Compounds were individually reconstituted in molecular biology grade dimethyl sulfoxide (DMSO) from Sigma-Aldrich and stored at −20°C. From the library, 1,424 compounds were screened in 96-well plates using the rCpPyK catalyzed enzyme assay to identify potential CpPyK inhibitors. The reactions were performed in 50 μl reaction volume containing 0.5 mM phosphoenolpyruvate, 0.6 mM ADP, 50 mM Tris buffer pH 7.5, 60 mM MgSO4, 100 mM KCl, and 6 ng/μl of rCpPyK protein with or without compound. The concentration of DMSO in all reaction mixtures was 1% (v/v). Control reactions without rCpPyK protein were included for background subtraction. Following 3 h of incubation at room temperature, an equal volume of the Cell Titer-Glo 2.0 reagent was added to each well, and the luminescence produced was recorded as relative luminescence units (RLU) after 10 min of incubation using a multi-mode microplate reader (Spectra Max iD3; Molecular Devices, United States). The mean percent inhibition (MPI) of rCpPyK activity by each compound was derived by dividing the difference in luminescence (RLU) between the compound-treated wells and the DMSO-treated wells by the luminescence of the DMSO-treated wells and multiplying the product by 100:
(1) MPI=[(MeanRLUDMSO-treated-MeanRLUCompound-treated)÷MeanRLUDMSO-treated]×100.
Half maximal inhibitory concentration (IC50) values were determined by applying a non-linear regression analysis curve fit to the mean dose-response data for varying concentrations of each compound using GraphPad PRISM® v8. Reactions were performed in triplicate and repeated at least thrice.

C. parvum [2] = test: In vivo efficacy in C. parvum-infected IFN-γ KO mice, fecal oocysts load by qPCR; parameters: species or system Cryptosporidium parvum; settings: for relative potency among the treatments (oocysts load): 2.5 mg/kg NSC638080, NSC303244, NSC252172, 5 mg/kg NSC234945, paromomycin 1,000 mg/kg; for reduction in oocysts load compared to untreated mice / oocysts load compared to untreated mice: 10 mg/kg oral once daily; for reduction in oocysts load compared to untreated mice: day 9 PI; for oocysts load compared to untreated mice / potency, fold higher than paromomycin (1,000 mg/kg): day 10 PI; for potency, fold higher than paromomycin (1,000 mg/kg): 10 mg/kg
Experimental: (§1) Eight weeks old male interferon-gamma knockout (IFN-γ KO) mice (B6.129S7-Ifng^TM1Ts/J) were purchased from The Jackson Laboratory, United States, and allowed to quarantine and acclimatize for 1 week before the commencement of experiments. Before the start of the infection assays in mice, the tolerability of each inhibitor was determined by daily oral gavage with varying dosages (0–10 mg/kg mouse bodyweight) in groups of mice (n = 3 mice per group) for 8 days. During this period, mice were monitored daily for any changes in physical and mental activity, feeding, body weight, body temperature, fur condition, and body posture. […] Mice were divided into infected and uninfected groups (n = 3 mice per group) and each individual mouse was housed in a separate cage lined with sterile gauze bedding. Each mouse from the infected group was infected by oral gavage administration of 10^4 C. parvum AUCP-1 isolate oocysts suspended in 50 μl of PBS. Beginning day 3 PI, groups of mice were orally treated with CpPyK inhibitors (at the specified doses), sham (100 μl of 5% DMSO in PBS), or 1,000 mg/kg paromomycin (in sterile water) once daily for a total of 8 days. Fecal pellets were collected daily in individual sterile 15 ml tubes, and submerged in an equivalent volume of PBS containing a cocktail of penicillin (100 units/ml), streptomycin (100 μg/ml), chloramphenicol (34 μg/ml), and amphotericin (0.25 μg/ml), and stored at 4°C until use. Three independent replicate infection assays were performed. Mice were sacrificed at day 11 PI, and 5 cm of the distal small intestine just anterior to the cecum was resected and submerged in 10% neutral buffered formalin and submitted for histopathological processing in the Comparative Biosciences Histology Laboratory at the University of Illinois at Urbana-Champaign. Briefly, intestinal tissues preserved in 10% neutral buffered formalin were washed in 70% ethanol, embedded in paraffin, and sectioned transversely at a thickness of 5 μm. Sections were stained with hematoxylin and eosin. The slides were imaged using a Zeiss microscope fitted with a color camera.
DNA was isolated from 250 mg of feces collected from individual mice using the QIAamp® PowerFecal® Pro DNA kit (Qiagen, United States) following the manufacturer’s protocol. Oocysts load per gram of feces was measured by quantitative real time PCR (qPCR) analysis of the Cp18s rRNA gene (GenBank accession number AF164102) using gene-specific primers: 5′-[…]-3′ (Forward) and 5′-[…]-3′ (Reverse), described previously ([Parr et al., 2007]). To generate a quantification standard curve, fecal samples were obtained from uninfected mice and spiked with 10^8 C. parvum oocysts per gram of feces, followed by isolation of DNA as described above. Ten-fold serial dilutions of the extracted DNA were made and used as quantification standards for qPCR. C. parvum oocysts load quantification for the test mice was performed using DNA samples from the infected feces. Each 20 μl qPCR reaction contained 10 μl of PowerUp™ SYBR™ Green Master Mix (Applied Biosystems, United States), 500 nM of each primer, and 2 μl of DNA template. After 2 min of initial denaturation at 95°C, 40 cycles of denaturation at 95°C for 15 sec and annealing/extension at 60°C for 1 min were performed in a 7500 Real-Time PCR System (Applied Biosystems, United States). The oocyst load per gram of feces was derived by the 7500-system software using the generated quantification standard curves (Supplementary Figure 1).

C. parvum [3] = test: Histopathology of distal small intestine of C. parvum-infected IFN-γ KO mice; assay type: in vivo, Cryptosporidium parvum; settings: sacrificed day 11 PI
Experimental: as §1

[4] = 10 mg/kg daily oral from day 3 PI
[5] = 6 ng/μl rCpPyK, 3 h at room temperature, read-out: Enzyme inhibition IC50
[6] = 2.5 mg/kg oral once daily from day 3 PI for 8 days
[7] = 2.5 mg/kg daily oral from day 3 PI

Sequence of recombinant CpPyK (rCpPyK) protein (Q5CSM7 entry or part of it): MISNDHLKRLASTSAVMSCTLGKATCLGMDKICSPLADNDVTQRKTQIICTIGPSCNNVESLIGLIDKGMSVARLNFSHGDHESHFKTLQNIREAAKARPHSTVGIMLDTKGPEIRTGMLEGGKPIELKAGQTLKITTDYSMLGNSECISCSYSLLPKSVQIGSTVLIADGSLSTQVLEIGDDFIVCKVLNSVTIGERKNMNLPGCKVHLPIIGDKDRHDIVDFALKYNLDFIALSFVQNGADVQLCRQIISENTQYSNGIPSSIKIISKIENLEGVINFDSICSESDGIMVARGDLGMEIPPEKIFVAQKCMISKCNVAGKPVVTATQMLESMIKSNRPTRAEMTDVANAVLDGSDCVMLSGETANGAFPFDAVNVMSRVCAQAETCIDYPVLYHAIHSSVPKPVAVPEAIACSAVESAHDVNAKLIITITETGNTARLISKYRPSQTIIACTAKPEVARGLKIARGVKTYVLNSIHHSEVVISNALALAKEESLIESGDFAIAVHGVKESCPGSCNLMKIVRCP

c1ccc(-c2nnc(-c3ccccn3)[nH]2)nc1 [NSC234945, 2-(3-pyridin-2-yl-1H-1,2,4-triazol-5-yl)pyridine]
IC50 [1]: 235 µM
relative potency among the treatments (oocysts load) (C. parvum [2]): highest potency
oocysts load by day 9 PI vs other treatments and untreated group (C. parvum [2]; 5 mg/kg oral once daily from day 3 PI): significantly (P < 0.05) lower oocysts loads
load of C. parvum oocysts shed in feces (C. parvum [2]; 5 mg/kg oral once daily from day 3 PI for 8 days): significant reduction
reduction in oocysts load compared to untreated mice (C. parvum [2]): about threefold reduction in oocysts load
oocysts load compared to untreated mice (C. parvum [2]): about ninefold lower oocysts load
potency, fold higher than paromomycin (1,000 mg/kg) (C. parvum [2]): about 2.5 fold
intestinal pathology (histology, distal small intestine) (C. parvum [3]; [4]): best efficacy; also recorded: notably reduced pathological changes

N#C/C(=C\c1cc(O)c(O)c(O)c1)C(N)=O [NSC638080, (E)-2-cyano-3-(3,4,5-trihydroxyphenyl)prop-2-enamide]
IC50 [1, 5]: 97.1 µM
relative potency among the treatments (oocysts load) (C. parvum [2]): least efficacy
load of C. parvum oocysts shed in feces (C. parvum [2]; [6]): significant reduction
intestinal pathology (histology, distal small intestine) (C. parvum [3]; [7]): reduced intestinal pathology

CCOc1ccc(/C=C2\CCc3ccccc3C2=O)cc1 [NSC252172, (2E)-2-[(4-ethoxyphenyl)methylidene]-3,4-dihydronaphthalen-1-one]
IC50 [1, 5]: 123 µM
load of C. parvum oocysts shed in feces (C. parvum [2]; [6]): significant reduction
reduction in oocysts load compared to untreated mice (C. parvum [2]): about threefold reduction in oocysts load
oocysts load compared to untreated mice (C. parvum [2]): about ninefold lower oocysts load
potency, fold higher than paromomycin (1,000 mg/kg) (C. parvum [2]): about 2.5 fold
intestinal pathology (histology, distal small intestine) (C. parvum [3]; [4]): notably reduced pathological changes

Cc1cc2c(c(C#N)c1C)NC=NC2C (stereo not drawn) [NSC303244, 4,6,7-trimethyl-1,4-dihydroquinazoline-8-carbonitrile]
IC50 [1, 5]: 243 µM
load of C. parvum oocysts shed in feces (C. parvum [2]; [6]): significant reduction
intestinal pathology (histology, distal small intestine) (C. parvum [3]; [7]): reduced intestinal pathology
